# Measurements published in PubChem BioAssay AID256 (DTP/NCI, 2004).
# Where “and” joins values, the source holds several entries; their conditions need not be identical. Identical values can stand only once. Toxic doses and inconclusive results are not listed.
# Test system: CD2F1 mice, L1210 leukemia ip, survival T/C
# Assay: NCI In Vivo Anticancer Drug Screen. Data for tumor model L1210 Leukemia (intraperitoneal) in CD2F1 (CDF1) mice
# Conditions: endpoint: mean survival time, higher = longer survival
# Outline: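 Implant tumor; dose compound or vehicle; measure endpoint in both groups; report treated divided by control.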
# [1] = dose: 25.0 mg/kg/injection, schedule: Q01DX009 (ip), vehicle: saline with Tween-80
# [2] = dose: 50.0 mg/kg/injection, schedule: Q01DX009 (ip), vehicle: saline with Tween-80
# [3] = dose: 100.0 mg/kg/injection, schedule: Q04DX003 (ip), vehicle: saline with Tween-80
# [4] = dose: 200.0 mg/kg/injection, schedule: Q04DX003 (ip), vehicle: saline with Tween-80
# [5] = dose: 12.5 mg/kg/injection, schedule: Q01DX009 (ip), vehicle: saline with Tween-80
# [6] = dose: 100.0 mg/kg/injection, schedule: Q01DX009 (ip), vehicle: saline with Tween-80
# [7] = dose: 25.0 mg/kg/injection, schedule: Q04DX002 (ip), vehicle: saline with Tween-80
# [8] = dose: 100.0 mg/kg/injection, schedule: Q04DX002 (ip), vehicle: saline with Tween-80
# [9] = dose: 400.0 mg/kg/injection, schedule: Q04DX002 (ip), vehicle: saline with Tween-80
smiles,measurement,setting,value
CCCCn1cnc2c(=S)nc(N)[nH]c21,T/C,[1],162 % of control
same,T/C,[2],171 % of control
same,T/C,"dose: 50.0 mg/kg/injection, schedule: Q04DX003 (ip), vehicle: saline with Tween-80",157 % of control
Nc1nc(Cl)nc(Cl)n1,T/C,"dose: 12.5 mg/kg/injection, schedule: Q01DX001 (ip), vehicle: saline with Tween-80",102 % of control
same,T/C,"dose: 25.0 mg/kg/injection, schedule: Q01DX001 (ip), vehicle: saline with Tween-80",105 % of control
same,T/C,"dose: 50.0 mg/kg/injection, schedule: Q01DX001 (ip), vehicle: saline with Tween-80",100 % of control
O/N=C\c1cccc2ccccc12,T/C,[3],97 % of control
same,T/C,[4],101 % of control
CCN(CC)c1ccc(-c2nc3ccccc3s2)cc1,T/C,"dose: 50.0 mg/kg/injection, schedule: Q01DX009 (ip), vehicle: Klucel (hydroxypropylcellulose) (HPC)",106 % of control
same,T/C,"dose: 100.0 mg/kg/injection, schedule: Q01DX009 (ip), vehicle: Klucel (hydroxypropylcellulose) (HPC)",98 % of control
same,T/C,"dose: 200.0 mg/kg/injection, schedule: Q01DX009 (ip), vehicle: Klucel (hydroxypropylcellulose) (HPC)",102 % of control
Cc1ccc(C(=O)NCCCOc2ccc(N3C(N)=NC(N)=NC3(C)C)cc2Cl)cc1S(=O)(=O)F,T/C,[5],106 % of control
same,T/C,[1],103 % of control
same,T/C,[2],103 % of control
same,T/C,[6],106 % of control
Nc1ccccc1CCCC(N)C(=O)O (centres undefined),T/C,"dose: 100.0 mg/kg/injection, schedule: Q01DX001 (ip), vehicle: saline with Tween-80",97 % of control
same,T/C,"dose: 200.0 mg/kg/injection, schedule: Q01DX001 (ip), vehicle: saline with Tween-80",100 % of control
same,T/C,"dose: 400.0 mg/kg/injection, schedule: Q01DX001 (ip), vehicle: saline with Tween-80",93 % of control
CCOC(=O)C1C(=O)N(Cc2ccccc2)C(=O)N1C (centres undefined),T/C,"dose: 12.5 mg/kg/injection, schedule: Q01DX009 (ip), vehicle: other",98 % of control
same,T/C,"dose: 25.0 mg/kg/injection, schedule: Q01DX009 (ip), vehicle: other",104 % of control
same,T/C,"dose: 50.0 mg/kg/injection, schedule: Q01DX009 (ip), vehicle: other",100 % of control
same,T/C,"dose: 100.0 mg/kg/injection, schedule: Q01DX009 (ip), vehicle: other",100 % of control
same,T/C,"dose: 200.0 mg/kg/injection, schedule: Q01DX009 (ip), vehicle: other",100 % of control
O=C(Nc1cccc(S(=O)(=O)F)c1)c1cccc([N+](=O)[O-])c1,T/C,[3],105 % of control
same,T/C,[4],102 % of control
same,T/C,"dose: 400.0 mg/kg/injection, schedule: Q04DX003 (ip), vehicle: saline with Tween-80",96 % of control
CCCCCCCCCCCCCCCC(=O)N1CCN(C)CC1,T/C,[2],89 % of control
same,T/C,[6],91 % of control
same,T/C,[3],93 % of control
same,T/C,[4],90 % of control
COc1ccc(NC(=O)Oc2ccc(Cl)cc2Cl)cc1,T/C,[1],112 % of control
same,T/C,[7],100 % of control
same,T/C,[2],112 % of control
same,T/C,"dose: 50.0 mg/kg/injection, schedule: Q04DX002 (ip), vehicle: saline with Tween-80",100 % of control
same,T/C,[6],101 % of control
same,T/C,[8],95 % of control and 98 % of control
same,T/C,[9],102 % of control
OCCOC1CCC(O)C2CCCCC12 (centres undefined),T/C,"dose: 100.0 mg/kg/injection, schedule: Q01DX001 (ip), vehicle: saline sonified",103 % of control
same,T/C,"dose: 200.0 mg/kg/injection, schedule: Q01DX001 (ip), vehicle: saline sonified",98 % of control
same,T/C,"dose: 400.0 mg/kg/injection, schedule: Q01DX001 (ip), vehicle: saline sonified",109 % of control
CCCCCCCCCCCCCCCCCCCCCC(=O)Nc1ccn(C2OC(CO)C(O)C2O)c(=O)n1 (centres undefined),T/C,[8],212 % of control
same,T/C,"dose: 200.0 mg/kg/injection, schedule: Q04DX002 (ip), vehicle: saline with Tween-80",253 % of control
same,T/C,[9],325 % of control
NCCCNCCSP(=O)(O)O,T/C,[5],106 % of control
same,T/C,"dose: 12.5 mg/kg/injection, schedule: Q01DX009 (ip), vehicle: saline",95 % of control
same,T/C,[1],101 % of control
same,T/C,"dose: 25.0 mg/kg/injection, schedule: Q01DX009 (ip), vehicle: saline",106 % of control
same,T/C,[2],102 % of control
same,T/C,"dose: 50.0 mg/kg/injection, schedule: Q01DX009 (ip), vehicle: saline",101 % of control
same,T/C,[6],101 % of control
same,T/C,"dose: 100.0 mg/kg/injection, schedule: Q01DX009 (ip), vehicle: saline",96 % of control
same,T/C,"dose: 200.0 mg/kg/injection, schedule: Q01DX009 (ip), vehicle: saline with Tween-80",104 % of control
same,T/C,"dose: 200.0 mg/kg/injection, schedule: Q01DX009 (ip), vehicle: saline",106 % of control
same,T/C,"dose: 400.0 mg/kg/injection, schedule: Q01DX009 (ip), vehicle: saline",93 % of control
N#[O+].O=[N+]([O-])O.[Co].[NH2-].[NH2-].[NH2-].[NH2-].[NH2-],T/C,"dose: 6.25 mg/kg/injection, schedule: Q04DX002 (ip), vehicle: saline with Tween-80",95 % of control
same,T/C,"dose: 12.5 mg/kg/injection, schedule: Q04DX002 (ip), vehicle: saline with Tween-80",88 % of control
same,T/C,[7],98 % of control
NCCc1ccccn1,T/C,[3],96 % of control
same,T/C,[4],101 % of control
